Test results from patent US9221814B2, “Heterocyclic guanidine F1F0-atpase inhibitors and therapeutic uses thereof” (Lycera Corporation, priority 2012, dated 2015).
Read-outs that look alike come from different tables or passages of the source.

Tests used:
F1F0-ATPase = target: T1, F1F0-ATPase (Bos taurus, UniProt P13621); assay: Inhibition of F1F0-ATPase activity in synthesizing ATP (ATP synthesis inhibition); type: biochemical; settings: detection limit IC50=16 μM, read-out: ATP Syn IC50
T1 construct: from tissue
Protocol: (§1) Exemplary compounds described in above Examples were tested for activity against F1F0-ATPase by measuring the ability of the compounds to inhibit ATP synthesis. In addition, the compounds were assessed for cytotoxicity in Ramos cells. Inhibition of F1F0-ATPase activity in synthesizing ATP and cytotoxicity in Ramos cells were measured according to the procedures described in K. M. Johnson et al. Chemistry & Biology 2005, 12, 485-496.

Ramos cells = assay: Cytotoxicity in Ramos cells; type: cell-based; settings: detection limit EC50=16 μM, read-out: Ramos Cell EC50
Protocol: as §1

Structure (SMILES)	IC50 (F1F0-ATPase)	EC50 (Ramos cells)	EC50 (Ramos cells; Homo sapiens)
Cn1cc(C(=O)/N=C(\Nc2cc(-c3ccc(O)c(F)c3)n[nH]2)Nc2ccccc2C(C)(C)C)c(C(F)(F)F)n1 [Compound A-167]	< 5 µM	< 5 µM	
Cn1cc(C(=O)/N=C(/Nc2cc(-c3cc(F)cc(F)c3)n[nH]2)NC(C)(C)C)c(C(F)(F)F)n1 [Compound A-25]	< 5 µM	< 5 µM	
CCC(C)N/C(=N/C(=O)c1cnoc1C)Nc1cc(-c2ccc(Cl)cc2)n[nH]1 (stereo not drawn) [Compound A-90]	> 16 µM	> 16 µM	
Cn1cc(C(=O)/N=C(/Nc2ccc(C(C)(C)C)cc2)Nc2cc(-c3ccc(O)cc3F)n[nH]2)c(C(F)(F)F)n1 [Compound A-151]	< 5 µM	< 5 µM	
Cc1oncc1C(=O)/N=C(\Nc1cc(-c2ccc(F)cc2)n[nH]1)NC(C)(C)C [Compound A-188]	< 5 µM	< 5 µM	
CCOCCN/C(=N/C(=O)c1snnc1C)Nc1cc(-c2ccc(F)cc2)[nH]n1 [Compound A-121]	> 16 µM	> 16 µM	
CCOCC(C)N/C(=N/C(=O)c1nc(C)oc1C)Nc1cc(-c2ccc(F)cc2)n[nH]1 (stereo not drawn) [Compound A-194]	> 16 µM	< 5 µM	
COC[C@H](C)N/C(=N/C(=O)c1cc(C)oc1C(F)(F)F)Nc1cc(C)n[nH]1 [Compound A-113]	> 16 µM	> 16 µM	
Cc1cc(C(=O)/N=C(/NCC(C)C)Nc2cc(-c3ccc(F)cc3)n[nH]2)c(C)o1 [Compound A-192]	< 5 µM	5 to 16 µM	
Cn1cc(C(=O)/N=C(/Nc2cccc(Cl)c2)Nc2cc(-c3ccc(O)c(F)c3)n[nH]2)c(C(F)(F)F)n1 [Compound A-162]	< 5 µM	< 5 µM	
CCn1nc(C)cc1C(=O)/N=C(\Nc1cc(-c2ccc(F)cc2)n[nH]1)NC(C)(C)C [Compound A-53]	< 5 µM	< 5 µM	
CCOCCCN/C(=N/C(=O)c1cnoc1C)Nc1cc(-c2ccc(Cl)cc2)n[nH]1 [Compound A-104]	> 16 µM	> 16 µM	
CCOC(=O)NC1CCCC(N/C(=N\C(=O)c2cc(C)oc2C(F)(F)F)Nc2cccc(F)c2)C1 (stereo not drawn) [Compound 2, Ethyl (3-(3-(3-fluorophenyl)-2-(5-methyl-2-(trifluoromethyl)furan-3-carbonyl)guanidino)cyclohexyl)carbamate]	> 16 µM		5 to 16 µM
CCC(C)N/C(=N/C(=O)c1cnoc1C)Nc1cc(-c2cc(F)cc(F)c2)n[nH]1 (stereo not drawn) [Compound A-88]	< 5 µM	5 to 16 µM	
Cn1cc(C(=O)/N=C(\Nc2cc(-c3cc(O)ccc3Cl)n[nH]2)NC(C)(C)C)c(C(F)(F)F)n1 [Compound A-181]	< 5 µM	5 to 16 µM	
CC(C)n1ccc(C(=O)/N=C(\Nc2cc(-c3ccc(F)cc3)n[nH]2)NC(C)(C)C)n1 [Compound A-56]	< 5 µM	5 to 16 µM	
Cc1cc(C(=O)N=C(Nc2cc(-c3cc(F)cc(F)c3)n[nH]2)NC(C)C)n(C)n1 [Compound A-81]	< 5 µM		5 to 16 µM
COC[C@H](C)N/C(=N/C(=O)c1cc(C)oc1C(F)(F)F)Nc1cc(-c2cc(F)cc(F)c2)n[nH]1 [Compound A-118]	< 5 µM	5 to 16 µM	
CCCn1ccc(C(=O)N=C(Nc2cc(-c3ccc(F)cc3)n[nH]2)NC(C)C)n1 [Compound A-59]	5 to 16 µM		5 to 16 µM
CC(C)N/C(=N/C(=O)c1cc(C(C)(C)C)nn1C)Nc1cc(-c2ccc(Cl)cc2)n[nH]1 [Compound A-71]	5 to 16 µM	< 5 µM	
Cn1cc(C(=O)/N=C(\Nc2cc(-c3cc(O)ccc3F)n[nH]2)NC(C)(C)C)c(C(F)(F)F)n1 [Compound A-178]	5 to 16 µM	5 to 16 µM	
Cc1nc(C(=O)/N=C(/Nc2ccc3[nH]ncc3c2)Nc2ccccc2C(C)(C)C)cs1 [Compound A-15]			5 to 16 µM
Cn1cc(C(=O)/N=C(/NCC(C)(C)C)Nc2cc(-c3ccc(O)cc3F)[nH]n2)c(C(F)(F)F)n1 [Compound A-138]	> 16 µM	> 16 µM	
Cc1cc(N/C(=N\C(=O)c2cc(C)oc2C(F)(F)F)Nc2cc(F)cc(Cl)c2)n[nH]1 [Compound A-108]	< 5 µM	5 to 16 µM	

Structure (SMILES)	IC50 (F1F0-ATPase)	EC50 (Ramos cells)	EC50 (Ramos cells; Homo sapiens)
Cn1cc(C(=O)/N=C(/NCC(C)(C)C)Nc2n[nH]c3cncc(F)c23)c(C(F)(F)F)n1 [Compound A-144]	5 to 16 µM	> 16 µM	
Cc1ccc(Cl)cc1N/C(=N/C(=O)c1cn(C)nc1C(F)(F)F)Nc1cc(-c2ccc(O)c(F)c2)n[nH]1 [Compound A-186]	5 to 16 µM	> 16 µM	
Cc1c(Cl)cccc1N/C(=N/C(=O)c1cn(C)nc1C(F)(F)F)Nc1cc(-c2ccc(O)c(F)c2)n[nH]1 [Compound A-184]	< 5 µM	< 5 µM	
Cn1nc(C(C)(C)C)cc1C(=O)/N=C(\Nc1cc(-c2ccc(F)cc2)n[nH]1)NC1CCCC1 [Compound A-51]	< 5 µM	< 5 µM	
Cn1cc(C(=O)/N=C(\Nc2cc(F)cc(Cl)c2)Nc2cc(-c3ccc(O)cc3F)n[nH]2)c(C(F)(F)F)n1 [Compound A-5]	< 5 µM	< 5 µM	
Cc1nc(C(=O)/N=C(/Nc2ccc(F)cc2)Nc2ccc(Cl)cc2)cs1 [Compound A-18]			> 16 µM
Cc1nc(C(=O)/N=C(\Nc2cccc(Cl)c2)Nc2ccc3[nH]ncc3c2)cs1 [Compound A-23]			> 16 µM
Cc1nc(C(=O)/N=C(\Nc2ccc(Cl)cc2)Nc2ccc(N3CCC(O)CC3)cc2)cs1 [Compound A-21]			> 16 µM
Cc1nc(C(=O)/N=C(\Nc2cccc(Cl)c2)Nc2ccc3[nH]c(=O)oc3c2)cs1 [Compound A-24]			> 16 µM
Cc1cc(C(=O)N=C(Nc2cc(-c3ccc(F)cc3)[nH]n2)NC(C)(C)C)no1 [Compound A-41]	5 to 16 µM		
Cc1nc(C(=O)/N=C(/Nc2ccc3[nH]c(=O)oc3c2)Nc2ccccc2C(C)(C)C)cs1 [Compound A-16]			> 16 µM
Cc1nc(C(=O)/N=C(\Nc2ccc(Cl)cc2)Nc2ccc3[nH]ncc3c2)cs1 [Compound A-19]			> 16 µM
Cc1nc(C(=O)/N=C(/Nc2ccc(N3CCC(O)CC3)cc2)Nc2ccccc2C(C)(C)C)cs1 [Compound A-17]			> 16 µM
Cc1nc(C(=O)/N=C(\Nc2ccc(Cl)cc2)Nc2ccc3[nH]c(=O)oc3c2)cs1 [Compound A-20]			> 16 µM
Cc1ccccc1CN/C(=N/C(=O)c1ccno1)Nc1cc(-c2ccc(F)cc2)n[nH]1 [Compound A-39]	5 to 16 µM		
Cc1nc(C(=O)/N=C(/Nc2ccc(F)cc2)Nc2cccc(C(F)(F)F)c2)cs1 [Compound A-10]			> 16 µM
Cc1nc(C(=O)/N=C(/Nc2ccc(N3CCC(O)CC3)cc2)Nc2cccc(C(F)(F)F)c2)cs1 [Compound A-13]			> 16 µM
Cc1nc(C(=O)/N=C(/Nc2ccc(F)cc2)Nc2cccc(Cl)c2)cs1 [Compound A-22]			> 16 µM
Cc1nc(C(=O)/N=C(\Nc2cccc(C(F)(F)F)c2)Nc2ccc3[nH]c(=O)oc3c2)cs1 [Compound A-12]			> 16 µM
Cc1nc(C(=O)/N=C(\Nc2cccc(C(F)(F)F)c2)Nc2ccc3[nH]ncc3c2)cs1 [Compound A-11]			> 16 µM
Cn1nc(C(C)(C)C)cc1C(=O)/N=C(\Nc1cc(-c2ccc(F)cc2)n[nH]1)NC(C)(C)C [Compound A-43]	< 5 µM		
Cc1oncc1C(=O)/N=C(/NCc1ccc(F)cc1Cl)Nc1cc(-c2ccc(F)cc2)n[nH]1 [Compound A-37]		5 to 16 µM	
Cc1nc(C(=O)/N=C(/Nc2ccc(F)cc2)Nc2ccccc2C(C)(C)C)cs1 [Compound A-14]			> 16 µM
